# According to patent publication US20120178765A1, “NOVEL GLUCOKINASE ACTIVATORS AND PROCESSES FOR THE PREPARATION THEREOF” (YUHAN CORPORATION, priority 2009, published 2012):
# Structures can show the parent of a compound that is named as a salt.
# Molecular target: T1, Glucokinase (Homo sapiens, UniProt P35557)
# T1 construct: purchased ProteinOne Inc
# T1 sequence (P35557 1-465): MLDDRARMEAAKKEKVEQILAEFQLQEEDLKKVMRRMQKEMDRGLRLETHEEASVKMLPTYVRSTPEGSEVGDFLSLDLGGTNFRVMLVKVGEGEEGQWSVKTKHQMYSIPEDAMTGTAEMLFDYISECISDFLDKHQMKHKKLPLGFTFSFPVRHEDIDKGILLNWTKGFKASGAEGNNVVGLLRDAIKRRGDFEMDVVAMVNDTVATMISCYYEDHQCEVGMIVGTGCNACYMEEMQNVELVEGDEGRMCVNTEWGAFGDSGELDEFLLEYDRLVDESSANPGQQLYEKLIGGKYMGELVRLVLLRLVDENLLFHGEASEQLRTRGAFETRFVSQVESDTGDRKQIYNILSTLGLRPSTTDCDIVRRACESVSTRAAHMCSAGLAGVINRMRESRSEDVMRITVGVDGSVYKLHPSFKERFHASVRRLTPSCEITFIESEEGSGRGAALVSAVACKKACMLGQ
# Assay: Glucokinase activation assay (NADPH absorbance at 340 nm)
# Assay type: biochemical
# Settings: glucokinase (ProteinOne Inc.), 5 mM D(+)-glucose, 24° C., 90 minutes
# Method: The amounts of glucokinase activation were determined by measuring the levels of NADPH (the final metabolite of glucose through glucokinase-mediated phospho-rylation) and then calculating to glucokinase activities.
# Glucokinase (ProteinOne Inc.) was added, in the concentration of 100 ng/uL, to a enzyme-reaction medium (25 mM HEPES pH 7, 25 mM KCL, 1 mM MgCl, 5 mM D(+)-glucose, 1 mM ATP, 1 mM NADP, 1 mM DTT, and 2.5 u/mL G6PDH). Each compound in predetermined concentrations was added to the enzyme-reaction medium and then absorbance (First Absorbance) was measured at 340 nm of wavelength. After measuring the first absorbance, each reaction mixture was incubated at 24° C. for 90 minutes and then absorbance (Second Absorbance) was re-measured at 340 nm of wavelength. Using changes between First Absorbance and Second Absorbance, glucokinase activity was calculated. In the calculation, a maximum activity of the test compound (Emax), in comparison to the control group (no treatment of compound) was determined and then EC50 was calculated using the software for statistical analysis “Prism”, based on the activity-changes according to concentrations of the test compounds.
# The amounts of glucokinase activation of the compounds of Comparative Examples 1 and 2 were determined, in accordance with the same procedures as in Test Example 1.
row,Molecule,EC50 [µM]
1,"CC(C)COc1cc(/C=C/c2ccccc2[N+](=O)[O-])cc(C(=O)Nc2nccs2)c1 [Example 3, 3-[trans-2-(2-nitrophenyl)vinyl]-5-isobutoxy-N-(thiazol-2-yl)-benzamide]",0.0902
2,"COC[C@H](C)Oc1cc(CCc2cccc(N)c2)cc(C(=O)Nc2nccs2)c1 [Example 111, 3-[2-(3-aminophenyl)ethyl]-5-(2-methoxy-(1S)-methyl-ethoxy)-N-(thiazol-2-yl)-benzamide hydrochloride]",0.0547
3,3-{2-[4-(4-chlorobenzoylamino)phenyl]ethyl}-5-(2-methoxy-(1S)-methyl-ethoxy)-N-(thiazol-2-yl)-benzamide [Example 140],0.44
4,3-[trans-2-(2-methoxyphenyl)vinyl]-5-(2-methoxy-(1S)-methyl-ethoxy)-N-(1-methyl-1H-pyrazol-3-yl)-benzamide [Example 83],0.115
5,3-[2-(2-benzenesulfonylaminophenyl)ethyl]-5-(2-methoxy-(1S)-methyl-ethoxy)-N-(thiazol-2-yl)-benzamide [Example 115],0.21
6,3-[trans-2-(4-fluorophenyl)vinyl]-5-(2-methoxy-(1S)-methyl-ethoxy)-N-(pyrazin-2-yl)-benzamide [Example 52],0.42
7,"COC[C@H](C)Oc1cc(/C=C/c2ccccc2F)cc(C(=O)Nc2nccs2)c1 (stereo in doubt) [Example 6, 3-[trans-2-(2-fluorophenyl)vinyl]-5-(2-methoxy-(1S)-methyl-ethoxy)-N-(thiazol-2-yl)-benzamide]",0.0385
8,"COC[C@H](C)Oc1cc(CCc2ccccc2F)cc(C(=O)Nc2ccn(C)n2)c1 [Example 94, 3-[2-(2-fluorophenyl)ethyl]-5-(2-methoxy-(1S)-methyl-ethoxy)-N-(1-methyl-1-pyrazol-3-yl)-benzamide]",0.217
9,3-[2-(3-acetylaminophenyl)ethyl]-5-(2-methoxy-(1S)-methyl-ethoxy)-N-(thiazol-2-yl)-benzamide [Example 118],0.208
10,"COc1ccc(/C=C/c2cc(OCC(C)C)cc(C(=O)Nc3nccs3)c2)cc1OC [Example 4, 3-[trans-2-(3,4-dimethoxyphenyl)vinyl]-5-isobutoxy-N-(thiazol-2-yl)-benzamide]",0.222
11,3-[trans-2-(2-methoxyphenyl)vinyl]-5-(2-methoxy-(1S)-methyl-ethoxy)-N-(5-fluorothiazol-2-yl)-benzamide [Example 82],0.0918
12,"COC[C@H](C)Oc1cc(/C=C/c2ccccc2OC)cc(C(=O)Nc2ccc(C(=O)O)cn2)c1 [Example 73, 3-[trans-2-(2-methoxyphenyl)vinyl]-5-(2-methoxy-(1S)-methyl-ethoxy)-N-(nicotinic acid-6-yl)-benzamide]",0.0828
13,"COC[C@H](C)Oc1cc(/C=C/c2cccc([N+](=O)[O-])c2)cc(C(=O)Nc2ccc(C(=O)O)cn2)c1 [Example 75, 3-[trans-2-(3-nitrophenyl)vinyl]-5-(2-methoxy-(1S)-methyl-ethoxy)-N-(nicotinic acid-6-yl)-benzamide]",0.165
14,3-[trans-2-(2-bromophenyl)vinyl]-5-(2-methoxy-(1S)-methyl-ethoxy)-N-(1-methyl-1H-pyrazol-3-yl)-benzamide [Example 43],0.322
15,"CCC(COC)Oc1cc(/C=C/c2ccc(F)cc2)cc(C(=O)Nc2nccs2)c1 (stereo not drawn) [Example 148, 3-[trans-2-(4-fluorophenyl)vinyl]-5-(1-methoxymethyl-propoxy)-N-(thiazol-2-yl)-benzamide]",0.417
16,"COC[C@H](C)Oc1cc(/C=C/c2cc(F)ccc2F)cc(C(=O)Nc2ccc(C(=O)O)cn2)c1 [Example 80, 3-[trans-2-(2,5-difluorophenyl)vinyl]-5-(2-methoxy-(1S)-methyl-ethoxy)-N-(nicotinic acid-6-yl)-benzamide]",0.134
17,"3-[trans-2-(2,3-dimethoxyphenyl)vinyl]-5-(2-methoxy-(1S)-methyl-ethoxy)-N-(5-fluorothiazol-2-yl)-benzamide [Example 28]",0.118
18,3-{2-[3-(4-nitrobenzoylamino)phenyl]ethyl}-5-(2-methoxy-(1S)-methyl-ethoxy)-N-(thiazol-2-yl)-benzamide [Example 127],0.266
19,3-[trans-2-(2-nitrophenyl)vinyl]-5-(2-methoxy-(1S)-methyl-ethoxy)-N-(1-methyl-1H-pyrazol-3-yl)-benzamide [Example 32],0.284
20,"COC[C@H](C)Oc1cc(/C=C/c2ccccc2[N+](=O)[O-])cc(C(=O)Nc2ccc(C(=O)O)cn2)c1 [Example 74, 3-[trans-2-(2-nitrophenyl)vinyl]-5-(2-methoxy-(1S)-methyl-ethoxy)-N-(nicotinic acid-6-yl)-benzamide]",0.296
21,"3-[trans-2-(2,3,5-trifluorophenyl)vinyl]-5-(2-methoxy-(1S)-methyl-ethoxy)-N-(thiazol-2-yl)-benzamide [Example 18]",0.126
22,3-[trans-2-(4-bromophenyl)vinyl]-5-(2-methoxy-(1S)-methyl-ethoxy)-N-(1-methyl-1H-pyrazol-3-yl)-benzamide [Example 45],0.181
23,"COC[C@H](C)Oc1cc(CCc2cccc(N)c2)cc(C(=O)Nc2ccn(C)n2)c1 [Example 97, 3-[2-(3-aminophenyl)ethyl]-5-(2-methoxy-(1S)-methyl-ethoxy)-N-(1-methyl-1-pyrazol-3-yl)-benzamide]",0.415
24,"3-[trans-2-(2,3-difluorophenyl)vinyl]-5-(2-methoxy-(1S)-methyl-ethoxy)-N-(thiazol-2-yl)-benzamide [Example 9]",0.0275
25,"3-[trans-2-(2,3-difluorophenyl)vinyl]-5-(2-methoxy-(1S)-methyl-ethoxy)-N-(1-methyl-1H-pyrazol-3-yl)-benzamide [Example 34]",0.132

# More lines, in order of falling EC50, values ahead:
row,EC50 [µM],Molecule
1,0.377,3-[trans-2-(3-bromophenyl)vinyl]-5-(2-methoxy-(1S)-methyl-ethoxy)-N-(pyrazin-2-yl)-benzamide [Example 59]
2,0.357,"COC[C@H](C)Oc1cc(CCc2ccc(NC(=O)c3ccncc3)cc2)cc(C(=O)Nc2nccs2)c1 [Example 142, 3-[2-(4-isonicotinamidephenyl)ethyl]-5-(2-methoxy-(1S)-methyl-ethoxy)-N-(thiazol-2-yl)-benzamide]"
3,0.319,3-{2-[4-(3-phenyl-ureido)phenyl]ethyl}-5-(2-methoxy-(1S)-methyl-ethoxy)-N-(thiazol-2-yl)-benzamide [Example 145]
4,0.292,"COC[C@H](C)Oc1cc(/C=C/c2ccc(F)cc2)cc(C(=O)Nc2ccc(C(=O)OC)cn2)c1 [Example 65, 3-[trans-2-(4-fluorophenyl)vinyl]-5-(2-methoxy-(1S)-methyl-ethoxy)-N-(nicotinic acid-3-methyl ester-6-yl)-benzamide]"
5,0.135,"COC[C@H](C)Oc1cc(CCc2ccccc2OC)cc(C(=O)Nc2ccn(C)n2)c1 [Example 93, 3-[2-(2-methoxyphenyl)ethyl]-5-(2-methoxy-(1S)-methyl-ethoxy)-N-(1-methyl-1-pyrazol-3-yl)-benzamide]"
6,0.132,"3-[trans-2-(3,4-dimethoxyphenyl)vinyl]-5-(2-methoxy-(1S)-methyl-ethoxy)-N-(5-fluorothiazol-2-yl)-benzamide [Example 30]"
7,0.115,3-[trans-2-(2-methoxyphenyl)vinyl]-5-(2-methoxy-(1S)-methyl-ethoxy)-N-(1-methyl-1 H-pyrazol-3-yl)-benzamide [Example 42]
8,0.108,3-[2-(2-aminophenyl)ethyl]-5-(2-methoxy-(1S)-methyl-ethoxy)-N-(thiazol-2-yl)-benzamide [Example 88]
9,0.0702,"3-[trans-2-(2,4-difluorophenyl)vinyl]-5-(2-methoxy-(1S)-methyl-ethoxy)-N-(5-fluorothiazol-2-yl)-benzamide [Example 25]"
10,0.0411,3-[trans-2-(4-fluorophenyl)vinyl]-5-(2-methoxy-(1S)-methyl-ethoxy)-N-(5-fluorothiazol-2-yl)-benzamide [Example 23]
11,0.0309,"3-[trans-2-(2,5-difluorophenyl)vinyl]-5-(2-methoxy-(1S)-methyl-ethoxy)-N-(thiazol-2-yl)-benzamide [Example 11]"
12,0.0127,"COC[C@H](C)Oc1cc(/C=C/c2ccccc2[N+](=O)[O-])cc(C(=O)Nc2nccs2)c1 [Example 13, 3-[trans-2-(2-nitrophenyl)vinyl]-5-(2-methoxy-(1S)-methyl-ethoxy)-N-(thiazol-2-yl)-benzamide]"
